# Columns and labels:
# [1] = tested on: mouse peritoneal macrophages; conditions: cited from earlier work
# Source text: Apart from their effects on κ-opioid receptors on neurons, Dyn A exerts numerous effects on leukocytes, particularly myeloid cells. […] Similar to other cationic peptides, Dyn A can exert some effects essential for host defense.
# [2] = tested on: Mac-1-deficient macrophages; assay: Transwell migration of Mac-1-deficient peritoneal macrophages to Dyn A; type: cell-based, mouse; conditions: 10 μM Dyn A, 90 min at 37 °C, TG-elicited
# Procedure: Fig. 6 Migration of Mac-1-expressing cells to Dyn A in a Transwell system. a, Mac-1-expressing HEK 293 cells (100 μl at 3 × 10^6 cell/ml) were added to the upper wells of the transwell chamber and their ability to migrate to different concentrations of Dyn A placed in the lower chamber was analyzed. After 16 hours at 37 °C, migrated cells were fixed, stained, and counted. Data are presented as numbers of migrated cells per field ± S.E. for five random fields per well. The figure is representative of 5 experiments. b, Mac-1-expressing or wild-type HEK 293 cells were added to the upper wells of the transwell chamber and their ability to migrate to 10 μM Dyn A placed in the lower chamber was analyzed as in A. Some Mac-1-HEK293 cells were pretreated with 20 μg/ml of mAbs 44a (anti-αM), IB4 (anti-β2) or OKM1 (non function-blocking anti-αM) or medium alone before addition to the upper wells. ***, medium alone. […] The number of migrated cells was determined as in A. Data are presented as number of migrated cells per field ± S.E. for five random fields per well. […]
# (§1) Migration assays with wild-type and Mac-1-expressing HEK293 cells and purified macrophages using Transwell inserts (5 μm pore size) were performed as previously described. […] The photographs were taken using a 20x objective and cells in […] and cells were counted. […]
# cells = conditions: cited from earlier work
# Mac-1-HEK293 cells = assay: Transwell migration of Mac-1-HEK293 cells to Dyn A; type: cell-based, Human; conditions: 16 h at 37 °C
# Procedure: Fig. 6 Migration of Mac-1-expressing cells to Dyn A in a Transwell system. a, Mac-1-expressing HEK 293 cells (100 μl at 3 × 10^6 cell/ml) were added to the upper wells of the transwell chamber and their ability to migrate to different concentrations of Dyn A placed in the lower chamber was analyzed. After 16 hours at 37 °C, migrated cells were fixed, stained, and counted. Data are presented as numbers of migrated cells per field ± S.E. for five random fields per well. The figure is representative of 5 experiments. b, Mac-1-expressing or wild-type HEK 293 cells were added to the upper wells of the transwell chamber and their ability to migrate to 10 μM Dyn A placed in the lower chamber was analyzed as in A. Some Mac-1-HEK293 cells were pretreated with 20 μg/ml of mAbs 44a (anti-αM), IB4 (anti-β2) or OKM1 (non function-blocking anti-αM) or medium alone before addition to the upper wells. ***, medium alone. Data are presented as the number of migrated cells per field ± S.E. for five random fields/well from 3 separate experiments. **, p < 0.01. c, migration of TG-elicited macrophages isolated from the peritoneum of wild-type and Mac-1-deficient mice. Macrophages (3x10^5) were placed in the upper chamber and allowed to migrate to Dyn A (10 μM) in the lower chamber for 90 min. The number of migrated cells was determined as in A. Data are presented as number of migrated cells per field ± S.E. for five random fields per well. The figure is representative of 3 experiments
# as §1
# wild-type HEK293 cells = assay: Translocation of Dyn A into wild-type HEK293 cells (immunolabeling); type: cell-based, Human; conditions: 20 μM Dyn A, 40 min at 37 °C
# Procedure: Fig. 5 Translocation of Dyn A into cells. Mac-1-expressing (a) and wild-type HEK293 (b) cells were incubated with 20 μM and 100 μM of Dyn A for 40 min at 37 °C, fixed, permeabilized and incubated with anti-dynorphin antibodies followed by Alexa Fluor 488-conjugated secondary goat anti-rabbit antibodies. No labeling was detected in the absence of primary antibody. c, Enlarged images of Dyn A-accumulated Mac-1- and wild-type HEK cells shown in a and b. d, Quantification of fluorescent cells shown in a and b
# Mac-1-HEK 293 and wild-type HEK 293 cells were incubated for 10 min with different concentrations (0–100 μM) of Dyn A and allowed to adhere to glass coverslips coated with poly-Lysine for 30 min. Adherent cells were fixed in 2 % paraformaldehyde solution, permeabilized with 0.1 % Tween-20, and blocked with 10 % normal goat serum plus 1 % BSA. The coverslips were incubated with 5 μg/ml polyclonal anti-Dyn A antibody followed by an secondary goat anti-rabbit antibody conjugated to Alexa Fluor 488 (1:1000). Images were taken using a Leica DM 4000B microscope (Leica, Buffalo Grove, IL).
compound,measurement,setting,value
CC[C@H](C)[C@H](NC(=O)[C@H](CCCNC(=N)N)NC(=O)[C@H](CCCNC(=N)N)NC(=O)[C@H](CC(C)C)NC(=O)[C@H](Cc1ccccc1)NC(=O)CNC(=O)CNC(=O)[C@@H](N)Cc1ccc(O)cc1)C(=O)N[C@@H](CCCNC(=N)N)C(=O)N1CCC[C@H]1C(=O)N[C@@H](CCCCN)C(=O)N[C@@H](CC(C)C)C(=O)N[C@@H](CCCCN)C(=O)N[C@@H](Cc1c[nH]c2ccccc12)C(=O)N[C@@H](CC(=O)O)C(=O)N[C@@H](CC(N)=O)C(=O)N[C@@H](CCC(N)=O)C(=O)O [Dyn A],Phagocytosis by mouse peritoneal macrophages,[1],enhance phagocytosis by mouse peritoneal macrophages
same,Migration of Mac-1-deficient macrophages (in words),[2],significantly impaired
same,Cell entry,cells,enters the cells
same,Concentration at which migratory response reaches saturation,Mac-1-HEK293 cells; Transwell 5 μm,5 µM
same,Lowest concentration inducing migration,Mac-1-HEK293 cells; Transwell 5 μm,0.5 to 1 µM
same,Migration of Mac-1-HEK293 cells (in words),Mac-1-HEK293 cells; Transwell,strong concentration-dependent migratory response
same,Localization of Dyn A in wild-type HEK293 cells,wild-type HEK293 cells,entering inside wild-type HEK293 cells

# Reference: article PMC4481117 (Molecular Pain, 2015)
